Data from patent US20190330224A1, “ACC INHIBITORS AND USES THEREOF” (Gilead Apollo, LLC, priority 2015, published 2019).
≈ marks a conversion by molar mass, not a printed value.

Tests used:
Botrtyis cinerea (Bc) = test: Growth inhibition assay of fungal pathogens, Bc; assay type: cell-based; settings: 48 hours; read-out: Concentration at 90% Inhibition, Bc
Description: (§1) Compounds of the present invention were evaluated in a growth inhibition assay to determine the ability to control the growth of fungal pathogens, such as Botrtyis cinerea (Bc). Collectotrichum graminicola (Cg), Diplodia maydis (Dm), Fusarium moniliforme (Fm), Fusarium virguliforme (Fv), Phytophthora capsici (Pc), Rhizoctonia solani (Rs), and Septoria tritici (St). Compounds to be tested were dissolved in DMSO at 2.5 mg/ml to produce compound stock solutions (“stocks”). Stocks were diluted with DMSO by a five-fold dilution in a 96-well stock plate, and two sets of final concentrations of 50, 10, and 2 ppm or 2, 0.4, and 0.08 ppm were obtained in vitro. A set of positive controls was also prepared, with various concentrations of Soraphen (2, 0.4, and 0.08 ppm), Metalaxyl (1.1, 0.22, and 0.04 ppm), and Metconazole (2, 0.4, and 0.08 ppm or 0.2, 0.04, and 0.008 ppm) after the five-fold dilutions. Negative controls on each plate included 2% DMSO, water, and a blank (media+2% DMSO). Fungal spores were isolated from previously sub-cultured plates of Botrtyis cinerea (Bc), Collectotrichum graminicola (Cg), Diplodia maydis (Dm), Fusarium moniliforme (Fm), Fusarium virguliforme (Fv), Phytophthora capsici (Pc), and Septoria tritici (St). The isolated spores were diluted to individual concentrations with a 17% V8 liquid media. For Rhizoctonia solani (Rs) and Pythium irregulare, 1.5 mm mycelial plugs were used in place of spores and ¼ Potato Dextrose Broth (PDB) was used for dilution. The spore concentrations and plug sizes were based on growth curves generated at 48 hours for each pathogen. In a second 96-well plate, the spores or mycelial plugs, media, diluted compound solutions, and controls were combined. Once the compound was added, a true final concentration of compound in each well was measured by an OD600 reading, which adjusted for any compound precipitation that might have occurred in the well. Plate readings were repeated at both 24 and 48 hours. The blank negative control was used as a background subtraction. Additional visual ratings were performed at both 24 and 48 hours for checking on precipitation and confirming efficacy. Visual and OD600 ratings of the compounds at 48 hours were compared to the 2% DMSO negative control, and the percent of pathogen growth inhibition was determined based on those values.

Diplodia maydis (Dm) = test: Growth inhibition assay of fungal pathogens, Dm; assay type: cell-based; settings: Stenocarpella maydis; 48 hours; read-out: Concentration at 90% Inhibition, Dm
Description: as §1

[1] = test system: Collectotrichum graminicola (Cg); test: Growth inhibition assay of fungal pathogens, Cg; assay type: cell-based; settings: 48 hours; read-out: Concentration at 90% Inhibition, Cg
Description: as §1

Rhizoctonia solani (Rs) = test: Growth inhibition assay of fungal pathogens, Rs; assay type: cell-based; settings: 48 hours, read-out: Concentration at 90% Inhibition, Rs
Description: as §1

Septoria tritici (St) = test: Growth inhibition assay of fungal pathogens, St; assay type: cell-based; settings: Zymoseptoria tritici; 48 hours; read-out: Concentration at 90% Inhibition, St
Description: as §1

[2] = test system: Fusarium virguliforme (Fv); test: Growth inhibition assay of fungal pathogens, Fv; assay type: cell-based; settings: 48 hours, read-out: Concentration at 90% Inhibition, Fv
Description: as §1

[3] = test system: Blumeria graminis f sp. hordei; test: Foliar protection test, barley powdery mildew control; assay type: in vivo, Blumeria graminis f sp. hordei on Hordeum vulgare cv. Perry; settings: 168 h, compound concentration 50 ppm, foliar spray, evaluated 7 days after inoculation, read-out: Barley Powdery Mildew Control at 50 ppm
Description: Compounds of the present invention were evaluated in a foliar protection test to determine the ability to control barley powdery mildew. Plants (Hordeum vulgare cv. Perry) were grown for 6 days in 2-inch square pots containing Metromix 200 medium amended with fertilizer. For propagation, plants were maintained in a growth chamber at conditions of 20 to 21° C., 16 hour light cycle, 400 uM of light, 70% humidity, and with sub-irrigation as needed. After inoculation with the pathogen of Blumeria graminis f sp. hordei, plants were kept at conditions of 20 to 22° C., 70% relative humidity, and 200 uM of light to facilitate infection and disease development. At 6 days after planting (1st true leaf fully expanded), the test compounds were dissolved in a solution of 5% acetone and 0.005% Tween 80 surfactant. An atomizer was used for applying the solution onto both sides of the leaves until thoroughly wetted. The amount of the compound applied to the leaves was typically 200, 100, 50, 10, or 2 ppm, but it may vary. At 24 hours after treatment, the plants were moved to a cooler chamber and inoculated by shaking well-colonized, untreated stock plants above the treated plants. This allowed producing a settling cloud of spores and resulting in uniform infection. Efficacy was evaluated in 7 days later by examining leaves for colonization and growth of mildew. Table 5 lists the results of barley powdery mildew control at a compound concentration of 50 ppm or 10 ppm. Compounds having an activity designated as “AA” provided a compound having >85% control of barley powdery mildew; compounds having an activity designated as “A” provided a compound having from 70% to 84% control of barley powdery mildew; compounds having an activity designated as “B” provided a compound having from 50 to 69% control of barley powdery mildew; compounds having an activity designated as “C” provided a compound having from 25 to 49% control of barley powdery mildew; and compounds having an activity designated as “D” provided a compound having <25% control of barley powdery mildew.

[4] = test system: Fusarium moniliforme (Fm); test: Growth inhibition assay of fungal pathogens, Fm; assay type: cell-based; settings: Fusarium verticillioides; 48 hours; read-out: Concentration at 90% Inhibition, Fm
Description: as §1

[5] = test system: Phytophthora capsici (Pc); test: Growth inhibition assay of fungal pathogens, Pc; assay type: cell-based; settings: 48 hours, read-out: Concentration at 90% Inhibition, Pc
Description: as §1

[6] = compound concentration 10 ppm, foliar spray, evaluated 7 days after inoculation
Human ACC2 = Human ACC2 (Homo sapiens, UniProt O00763); test: In vitro ACC2 inhibition assay (ADP-Glo), human ACC2; assay type: biochemical; settings: 5 nM ACC2, 20 μM ATP, 20 μM acetyl-CoA
[7] = test system: C. parapsilosis ATCC 22019; test: Anti-Fungal Activity Assay (broth microtiter MIC), C. parapsilosis; assay type: cell-based, Candida parapsilosis; settings: Lodderomyces parapsilosis, ATCC22019, 48 h, 3 replicates; MIC recorded at 48 h; read-out: MIC C. parapsilosis ATCC 22019
Procedure, shortened: (§2)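 Candida strains were grown from frozen stock on Sabouraud dextrose agar overnight at 35° C, then suspended directly in RPMI 1640+MOPS and quantified against standard curves. Broth microdilution MIC plates followed CLSI M27-A3; MICs were read visually against growth control at 48 h, with a 24 h read added for soraphen.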

C. krusei ATCC 6258 = test: Anti-Fungal Activity Assay (broth microtiter MIC), C. krusei; assay type: cell-based, Candida krusei; settings: Pichia kudriavzevii, ATCC6258, 48 h, 3 replicates; MIC recorded at 48 h; read-out: MIC C. krusei ATCC 6258
Procedure, shortened: as §2

C. albicans ATCC 90028 = test: Anti-Fungal Activity Assay (broth microtiter MIC), C. albicans; assay type: cell-based, Candida albicans; settings: Candida albicans, ATCC90028, 48 h, 3 replicates; MIC recorded at 48 h; read-out: MIC C. albicans ATCC 90028
Procedure, shortened: as §2

Fungal ACC2 = Fungal ACC2 (UniProt Q00955); settings: read-out: Fungal ACC2 (IC50, in vitro ACC2 inhibition)
Chain of Fungal ACC2 (Q00955 whole entry): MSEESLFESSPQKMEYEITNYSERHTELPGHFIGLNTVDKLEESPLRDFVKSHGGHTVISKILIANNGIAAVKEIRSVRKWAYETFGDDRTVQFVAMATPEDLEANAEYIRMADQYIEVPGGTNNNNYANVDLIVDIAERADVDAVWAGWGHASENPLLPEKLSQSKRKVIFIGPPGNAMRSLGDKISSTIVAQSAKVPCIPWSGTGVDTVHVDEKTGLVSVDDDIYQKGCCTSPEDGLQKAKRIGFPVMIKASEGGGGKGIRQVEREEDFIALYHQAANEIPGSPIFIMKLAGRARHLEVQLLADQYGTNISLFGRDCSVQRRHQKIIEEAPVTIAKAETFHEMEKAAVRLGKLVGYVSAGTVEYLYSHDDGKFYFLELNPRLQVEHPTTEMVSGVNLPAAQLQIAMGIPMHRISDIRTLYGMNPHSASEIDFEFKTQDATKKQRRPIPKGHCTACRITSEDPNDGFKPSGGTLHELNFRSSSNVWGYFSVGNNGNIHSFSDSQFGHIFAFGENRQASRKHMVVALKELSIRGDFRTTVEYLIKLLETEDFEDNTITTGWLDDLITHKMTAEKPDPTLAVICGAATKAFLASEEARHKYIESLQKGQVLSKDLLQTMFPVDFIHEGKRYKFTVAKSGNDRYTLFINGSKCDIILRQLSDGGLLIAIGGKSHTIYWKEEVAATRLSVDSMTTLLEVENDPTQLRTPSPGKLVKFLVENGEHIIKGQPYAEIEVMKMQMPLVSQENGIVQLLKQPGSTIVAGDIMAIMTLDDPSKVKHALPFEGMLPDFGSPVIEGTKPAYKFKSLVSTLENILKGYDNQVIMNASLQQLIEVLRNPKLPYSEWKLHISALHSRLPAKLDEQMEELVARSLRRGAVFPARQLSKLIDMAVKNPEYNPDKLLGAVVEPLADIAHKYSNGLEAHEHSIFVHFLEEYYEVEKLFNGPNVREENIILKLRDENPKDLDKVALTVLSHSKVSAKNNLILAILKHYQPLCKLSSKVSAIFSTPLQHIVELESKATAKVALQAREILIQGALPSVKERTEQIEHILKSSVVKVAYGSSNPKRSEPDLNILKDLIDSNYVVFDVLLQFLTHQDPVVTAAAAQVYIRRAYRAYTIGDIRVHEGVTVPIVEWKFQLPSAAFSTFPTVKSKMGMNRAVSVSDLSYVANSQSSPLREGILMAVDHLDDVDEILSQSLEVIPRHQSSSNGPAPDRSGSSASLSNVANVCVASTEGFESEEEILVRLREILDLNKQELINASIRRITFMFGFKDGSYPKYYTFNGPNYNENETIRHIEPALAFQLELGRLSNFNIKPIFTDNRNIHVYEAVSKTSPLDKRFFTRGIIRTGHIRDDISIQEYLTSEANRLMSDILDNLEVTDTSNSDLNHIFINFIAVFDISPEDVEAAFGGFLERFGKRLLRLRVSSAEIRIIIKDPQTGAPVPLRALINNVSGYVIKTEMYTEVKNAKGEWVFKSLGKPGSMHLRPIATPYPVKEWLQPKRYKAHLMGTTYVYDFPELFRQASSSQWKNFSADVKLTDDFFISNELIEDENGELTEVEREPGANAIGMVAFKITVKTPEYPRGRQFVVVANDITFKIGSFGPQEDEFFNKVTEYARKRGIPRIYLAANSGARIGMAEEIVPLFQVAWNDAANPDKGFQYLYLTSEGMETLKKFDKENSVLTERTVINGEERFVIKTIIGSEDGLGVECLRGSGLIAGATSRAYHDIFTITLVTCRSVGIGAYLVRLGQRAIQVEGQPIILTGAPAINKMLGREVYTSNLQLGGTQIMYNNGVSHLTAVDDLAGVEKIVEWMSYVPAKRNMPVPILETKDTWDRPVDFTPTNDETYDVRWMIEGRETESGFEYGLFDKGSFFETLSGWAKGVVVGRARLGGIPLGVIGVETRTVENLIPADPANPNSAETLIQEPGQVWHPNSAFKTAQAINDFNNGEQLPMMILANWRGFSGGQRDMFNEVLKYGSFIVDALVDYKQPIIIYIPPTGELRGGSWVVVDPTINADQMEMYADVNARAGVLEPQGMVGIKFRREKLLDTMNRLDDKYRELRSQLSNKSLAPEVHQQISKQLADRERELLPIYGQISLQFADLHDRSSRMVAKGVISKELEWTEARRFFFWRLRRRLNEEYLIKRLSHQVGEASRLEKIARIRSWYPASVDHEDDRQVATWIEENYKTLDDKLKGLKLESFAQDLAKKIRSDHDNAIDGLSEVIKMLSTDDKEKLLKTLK

Chain of Human ACC2 (O00763 whole entry): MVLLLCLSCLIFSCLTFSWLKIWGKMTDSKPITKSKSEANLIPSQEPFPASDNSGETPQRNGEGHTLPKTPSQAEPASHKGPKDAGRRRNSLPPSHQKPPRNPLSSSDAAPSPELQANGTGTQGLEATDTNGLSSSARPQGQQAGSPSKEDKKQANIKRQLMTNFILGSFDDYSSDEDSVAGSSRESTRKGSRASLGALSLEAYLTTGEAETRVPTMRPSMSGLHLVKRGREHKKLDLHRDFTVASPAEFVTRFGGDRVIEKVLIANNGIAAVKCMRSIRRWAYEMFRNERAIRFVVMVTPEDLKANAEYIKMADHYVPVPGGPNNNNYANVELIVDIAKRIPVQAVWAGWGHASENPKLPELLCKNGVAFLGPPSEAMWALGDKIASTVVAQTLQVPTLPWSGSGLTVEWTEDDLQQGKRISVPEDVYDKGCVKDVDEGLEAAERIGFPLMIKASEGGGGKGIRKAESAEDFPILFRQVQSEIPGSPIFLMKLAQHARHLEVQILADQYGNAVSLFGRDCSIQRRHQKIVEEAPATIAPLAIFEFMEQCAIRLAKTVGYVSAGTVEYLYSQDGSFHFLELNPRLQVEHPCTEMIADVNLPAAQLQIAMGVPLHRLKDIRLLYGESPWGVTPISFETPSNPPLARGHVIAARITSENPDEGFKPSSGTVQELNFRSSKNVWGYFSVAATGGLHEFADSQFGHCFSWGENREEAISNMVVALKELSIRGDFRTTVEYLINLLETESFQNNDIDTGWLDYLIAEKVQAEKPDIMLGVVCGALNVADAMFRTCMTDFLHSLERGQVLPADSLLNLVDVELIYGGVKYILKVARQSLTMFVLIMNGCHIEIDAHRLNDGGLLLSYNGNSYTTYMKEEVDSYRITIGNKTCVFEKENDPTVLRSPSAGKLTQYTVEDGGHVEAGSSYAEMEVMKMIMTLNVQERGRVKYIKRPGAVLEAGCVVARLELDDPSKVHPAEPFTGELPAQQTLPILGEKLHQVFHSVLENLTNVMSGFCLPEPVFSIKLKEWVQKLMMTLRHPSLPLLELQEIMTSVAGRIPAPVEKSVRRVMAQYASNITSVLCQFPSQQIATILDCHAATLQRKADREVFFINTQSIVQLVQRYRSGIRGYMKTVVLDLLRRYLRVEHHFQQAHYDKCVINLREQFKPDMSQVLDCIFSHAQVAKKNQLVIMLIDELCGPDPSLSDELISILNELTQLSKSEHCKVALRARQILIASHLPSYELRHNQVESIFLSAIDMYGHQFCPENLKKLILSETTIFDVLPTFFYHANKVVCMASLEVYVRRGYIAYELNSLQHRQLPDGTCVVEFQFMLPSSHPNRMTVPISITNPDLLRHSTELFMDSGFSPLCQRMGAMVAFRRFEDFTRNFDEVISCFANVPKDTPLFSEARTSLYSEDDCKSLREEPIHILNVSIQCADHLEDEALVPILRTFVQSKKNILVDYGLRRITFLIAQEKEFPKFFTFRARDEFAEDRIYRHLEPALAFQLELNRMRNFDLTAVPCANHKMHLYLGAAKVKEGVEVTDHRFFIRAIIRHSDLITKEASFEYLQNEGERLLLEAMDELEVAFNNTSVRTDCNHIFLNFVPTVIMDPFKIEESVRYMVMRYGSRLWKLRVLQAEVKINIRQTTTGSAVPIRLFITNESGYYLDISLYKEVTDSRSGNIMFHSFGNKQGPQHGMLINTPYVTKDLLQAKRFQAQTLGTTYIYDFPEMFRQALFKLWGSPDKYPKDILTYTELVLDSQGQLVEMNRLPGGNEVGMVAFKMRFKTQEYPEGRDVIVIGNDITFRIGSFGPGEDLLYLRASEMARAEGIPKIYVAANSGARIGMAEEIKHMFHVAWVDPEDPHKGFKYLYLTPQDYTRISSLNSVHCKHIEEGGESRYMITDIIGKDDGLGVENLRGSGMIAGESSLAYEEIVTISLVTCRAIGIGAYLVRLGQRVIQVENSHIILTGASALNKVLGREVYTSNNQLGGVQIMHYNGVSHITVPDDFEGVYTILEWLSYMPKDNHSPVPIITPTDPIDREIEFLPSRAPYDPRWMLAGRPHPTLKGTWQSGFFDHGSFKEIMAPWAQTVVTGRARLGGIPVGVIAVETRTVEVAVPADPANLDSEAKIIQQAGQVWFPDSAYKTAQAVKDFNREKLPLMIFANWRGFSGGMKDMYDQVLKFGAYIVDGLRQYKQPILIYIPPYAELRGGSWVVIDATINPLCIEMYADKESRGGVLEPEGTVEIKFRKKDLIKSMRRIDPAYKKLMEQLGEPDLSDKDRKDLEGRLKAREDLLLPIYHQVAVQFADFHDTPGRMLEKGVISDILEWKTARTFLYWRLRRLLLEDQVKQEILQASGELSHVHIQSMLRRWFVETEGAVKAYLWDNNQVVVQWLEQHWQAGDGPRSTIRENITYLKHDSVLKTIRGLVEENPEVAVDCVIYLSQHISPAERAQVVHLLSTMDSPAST

Compound	IC90 (Botrtyis cinerea (Bc)) [µg/mL]	IC90 (Diplodia maydis (Dm)) [µg/mL]	IC90 [1] [µg/mL]	IC90 (Rhizoctonia solani (Rs)) [µg/mL]	IC90 (Septoria tritici (St)) [µg/mL]	IC90 [2] [µg/mL]	pest or weed control at 50 ppm [3] [%]	IC90 [4] [µg/mL]	IC90 [5] [µg/mL]	Barley Powdery Mildew Control at 10 ppm [6]	IC50 (Human ACC2) [nM]	MIC [7] [µg/mL]	MIC (C. krusei ATCC 6258) [µg/mL]	MIC (C. albicans ATCC 90028) [µg/mL]	IC50 (Fungal ACC2) [nM]
COc1ccc(F)cc1[C@H](Cn1c(=O)n([C@H]2CCCN(C(C)C)C2=O)c(=O)c2c(C)c(-n3nccn3)sc21)OCCO [Compound I-74, 1-((R)-2-(5-fluoro-2-methoxyphenyl)-2-(2-hydroxy-ethoxy)ethyl)-3-((S)-1-isopropyl-2-oxopiperidin-3-yl)-5-methyl-6-(2H-1,2,3-triazol-2-yl)thieno[2,3-d]pyrimidine-2,4(1H,3H)-dione]	2 (≈ 3.33 µM)	10 (≈ 16.6 µM)	10 (≈ 16.6 µM)	2 (≈ 3.33 µM)	> 50	2 (≈ 3.33 µM)	70 to 84	2 (≈ 3.33 µM)	> 50	D (provided a compound having <25% control of barley powdery mildew)	10 to 100	–	–	–	–
COc1ccc(F)cc1[C@H](Cn1c(=O)n([C@@H]2CCCN(C(C)C)C2=O)c(=O)c2c(C)c(-n3nccn3)sc21)OCCO [Compound I-75, 1-((R)-2-(5-fluoro-2-methoxyphenyl)-2-(2-hydroxy-ethoxy)ethyl)-3-((R)-1-isopropyl-2-oxopiperidin-3-yl)-5-methyl-6-(2H-1,2,3-triazol-2-yl)thieno[2,3-d]pyrimidine-2,4(1H,3H)-dione]	2 (≈ 3.33 µM)	10 (≈ 16.6 µM)	10 (≈ 16.6 µM)	2 (≈ 3.33 µM)	> 50	10 (≈ 16.6 µM)	50 to 69	2 (≈ 3.33 µM)	> 50	D (provided a compound having <25% control of barley powdery mildew)	10 to 100	2.1 to 4 (≈ 3.5 to 6.66 µM)	2.1 to 4 (≈ 3.5 to 6.66 µM)	2.1 to 4 (≈ 3.5 to 6.66 µM)	–
COCCO[C@@H](Cn1c(=O)n([C@H]2CCCN(C(C)C)C2=O)c(=O)c2c(C)c(-n3nccn3)sc21)c1cc(F)ccc1OC [Compound I-78, 1-((R)-2-(5-fluoro-2-methoxyphenyl)-2-(2-methoxy-ethoxy)ethyl)-3-((S)-1-isopropyl-2-oxopiperidin-3-yl)-5-methyl-6-(2H-1,2,3-triazol-2-yl)thieno[2,3-d]pyrimidine-2,4(1H,3H)-dione]	2 (≈ 3.25 µM)	10 (≈ 16.3 µM)	> 50	> 50	> 50	> 50	25 to 49	2 (≈ 3.25 µM)	> 50	–	10 to 100	2.1 to 4 (≈ 3.42 to 6.51 µM)	2.1 to 4 (≈ 3.42 to 6.51 µM)	2.1 to 4 (≈ 3.42 to 6.51 µM)	2 to 10
COCCO[C@@H](Cn1c(=O)n([C@@H]2CCCN(C(C)C)C2=O)c(=O)c2c(C)c(-n3nccn3)sc21)c1cc(F)ccc1OC [Compound I-79, 1-((R)-2-(5-fluoro-2-methoxyphenyl)-2-(2-methoxy-ethoxy)ethyl)-3-((R)-1-isopropyl-2-oxopiperidin-3-yl)-5-methyl-6-(2H-1,2,3-triazol-2-yl)thieno[2,3-d]pyrimidine-2,4(1H,3H)-dione]	> 50	10 (≈ 16.3 µM)	> 50	> 50	> 50	> 50	50 to 69	10 (≈ 16.3 µM)	> 50	–	100 to 1000	0.25 to 1 (≈ 0.407 to 1.63 µM)	1.1 to 2 (≈ 1.79 to 3.25 µM)	1.1 to 2 (≈ 1.79 to 3.25 µM)	2 to 10
COc1ccc(F)cc1[C@@H](O)Cn1c(=O)n([C@H]2CCN(C)C2=O)c(=O)c2c(C)c(-n3nccn3)sc21 [Compound I-164, 1-((R)-2-(5-fluoro-2-methoxyphenyl)-2-hydroxyethyl)-5-methyl-3-((S)-1-methyl-2-oxopyrrolidin-3-yl)-6-(2H-1,2,3-triazol-2-yl)thieno[2,3-d]pyrimidine-2,4(1H,3H)-dione]	2 (≈ 3.89 µM)	> 50	10 (≈ 19.4 µM)	0.4 (≈ 0.777 µM)	> 50	2 (≈ 3.89 µM)	–	0.4 (≈ 0.777 µM)	> 50	B (provided a compound having from 50 to 69% control of barley powdery mildew)	10 to 100	2.1 to 4 (≈ 4.08 to 7.77 µM)	1.1 to 2 (≈ 2.14 to 3.89 µM)	2.1 to 4 (≈ 4.08 to 7.77 µM)	0.7 to 2
